Patent US12234504B1 (priority 2023, dated 2025)

Columns and labels:
[1] = tested on: human DNA topoisomerase IIα; experiment: Agarose gel-based human DNA topoisomerase IIα mediated DNA cleavage assay; assay type: biochemical; conditions: 50 μM etoposide, increasing topoisomerase IIα, FIG. 8A
Method: (§1) FIGS. 8A-8C. […] Fluorescence intensity was measured using a Biotek microplate reader with excitation wavelength of 497 nm and emission wavelength of 525 nm.
DNA Gyrase and Human DNA Topoisomerase IIα Mediated DNA Cleavage Assay.
250 ng of relaxed plasmid pBR322 and 20 nM of E. coli DNA gyrase or human DNA topoisomerase IIα were mixed and incubated in 1×gyrase-mediated DNA cleavage buffer (20 mM Tris-HCl pH 8, 50 mM KAc, 10 mM MgCl2, 2 mM DTT, 1 mM ATP, 0.1 mg/mL BSA) at 37° C. for 15 minutes in the presence of an inhibitor or compound. After the incubation, 0.2% SDS and 0.1 mg/ml proteinase K were added to the reaction mixtures to trap the topoisomerase-inhibitor-DNA complex and digest the topoisomerase, respectively, by incubating for an additional 30 min at 37° C. DNA samples were analyzed in 1% agarose gel containing […] ethidium bromide in 1′TAE buffer and photographed under UV light. […] Etoposide was used as a positive control for human DNA topoisomerase IIα-mediated DNA cleavage assays.

[2] = tested on: human DNA topoisomerase IIα; experiment: Fluorescence-based DNA cleavage assay for human DNA topoisomerase IIα (T5 exonuclease digestion, SYBR Green staining); assay type: biochemical; conditions: 50 μM etoposide, […] human TopoIIα, FIG. 8C
Method: as §1

- fluorescence difference between presence and absence of compound (in words) [2]: significant fluorescence difference
SMILES: COc1cc([C@@H]2c3cc4c(cc3[C@@H](O[C@@H]3O[C@@H]5CO[C@@H](C)O[C@H]5[C@H](O)[C@H]3O)[C@H]3COC(=O)[C@H]23)OCO4)cc(OC)c1O [etoposide]
- linear and nicked plasmid DNA products (in words) [1]: progressive increase in the linear and nicked plasmid DNA products
